Reference: patent US11066369B2, “N-(pyridin-2-yl)pyridine-sulfonamide derivatives and their use in the treatment of disease” (Novartis AG, priority 2016, dated 2021)
Where two headings read alike, the source gives them in different places.

Target: T1, horseradish peroxidase (HRP) tagged delF508-CFTR (Homo sapiens, UniProt P13569, DEL508-508)
T1 construct: expressed in transfected cells
Assay: Measurement of delF508-CFTR-HRP surface expression in CFBE41o- cells;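 as to DelF508-CFTR-HRP Amax %: percent efficacy relative to reference corrector lumacaftor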
Type: cell-based
Conditions: for Emax: read-out: DelF508-CFTR-HRP Amax %; for EC50: read-out: DelF508-CFTR-HRP EC50
Procedure, shortened: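 CFBE41o- bronchial epithelial cells stably expressing delF508-CFTR with HRP in the fourth extracellular loop; expression induced 48h with 500 ng/mL doxycycline, then compounds added (top 10 μM, 10-point 3-fold series, ≤0.5% DMSO) for 24h at 37° C. Surface HRP measured by luminescence with cell-impermeant substrate; EC50 from logistic fit of triplicates, plate-normalized to lowest concentration; efficacy also relative to a reference corrector.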

[1] = delF508-CFTR-HRP surface expression, CFBE41o- cells
[2] = CFBE41o- cells, mean of at least two replicates
[3] = CFBE41o- cells, surface expression Amax

T1 sequence (P13569 with tags, fused parts or gaps DEL508-508): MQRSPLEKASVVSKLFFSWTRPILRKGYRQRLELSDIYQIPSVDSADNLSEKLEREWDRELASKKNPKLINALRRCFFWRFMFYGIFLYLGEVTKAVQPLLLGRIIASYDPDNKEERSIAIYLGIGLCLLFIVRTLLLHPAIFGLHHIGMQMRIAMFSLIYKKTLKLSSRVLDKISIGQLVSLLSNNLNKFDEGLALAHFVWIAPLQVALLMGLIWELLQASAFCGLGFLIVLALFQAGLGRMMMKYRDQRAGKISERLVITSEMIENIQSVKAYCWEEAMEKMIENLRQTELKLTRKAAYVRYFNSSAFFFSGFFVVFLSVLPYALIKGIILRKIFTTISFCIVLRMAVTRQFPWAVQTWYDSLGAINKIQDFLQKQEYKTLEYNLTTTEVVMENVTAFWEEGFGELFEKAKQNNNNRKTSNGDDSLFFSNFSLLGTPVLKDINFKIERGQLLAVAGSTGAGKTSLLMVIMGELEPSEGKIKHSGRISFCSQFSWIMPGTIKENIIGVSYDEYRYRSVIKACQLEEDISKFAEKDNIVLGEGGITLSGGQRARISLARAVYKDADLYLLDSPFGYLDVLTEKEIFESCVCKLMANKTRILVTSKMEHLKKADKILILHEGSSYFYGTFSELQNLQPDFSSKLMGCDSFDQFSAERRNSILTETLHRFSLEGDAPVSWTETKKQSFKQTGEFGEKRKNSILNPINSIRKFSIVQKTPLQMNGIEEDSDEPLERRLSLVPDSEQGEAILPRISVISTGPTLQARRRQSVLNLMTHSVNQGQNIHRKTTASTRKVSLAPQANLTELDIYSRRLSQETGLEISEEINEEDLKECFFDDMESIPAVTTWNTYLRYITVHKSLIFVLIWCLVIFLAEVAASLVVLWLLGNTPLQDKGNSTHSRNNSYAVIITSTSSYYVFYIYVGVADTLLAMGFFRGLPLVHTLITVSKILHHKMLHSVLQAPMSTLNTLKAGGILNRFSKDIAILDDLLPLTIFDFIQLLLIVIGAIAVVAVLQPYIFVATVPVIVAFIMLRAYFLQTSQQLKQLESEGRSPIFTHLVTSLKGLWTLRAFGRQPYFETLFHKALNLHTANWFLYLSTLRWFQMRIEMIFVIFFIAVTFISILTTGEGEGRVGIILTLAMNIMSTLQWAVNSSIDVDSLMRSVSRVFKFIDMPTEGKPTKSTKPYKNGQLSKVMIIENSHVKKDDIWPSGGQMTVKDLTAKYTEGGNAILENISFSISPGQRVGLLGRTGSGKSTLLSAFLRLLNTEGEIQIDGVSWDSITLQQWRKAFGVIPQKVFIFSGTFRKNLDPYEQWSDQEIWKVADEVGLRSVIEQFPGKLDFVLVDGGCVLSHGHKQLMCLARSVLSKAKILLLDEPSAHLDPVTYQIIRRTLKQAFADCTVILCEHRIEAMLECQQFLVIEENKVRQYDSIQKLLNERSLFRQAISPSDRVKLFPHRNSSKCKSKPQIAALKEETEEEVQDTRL

SMILES	Emax [1] [%]	EC50 [1] [nM]	EC50 [2] [nM]	Emax [3] [%]	Emax (CFBE41o-) [%]
Cc1ccccc1-c1nc(NS(=O)(=O)c2cccc(N3CCNC[C@@H]3C(=O)O)n2)ccc1C(F)(F)F [Example 353, (2R)-1-(6-{[6-(2-methylphenyl)-5-(trifluoromethyl)pyridin-2-yl]sulfamoyl}pyridin-2-yl)piperazine-2-carboxylic Acid]	118	2800			
Cc1ccccc1-c1nc(NS(=O)(=O)c2cccc(N3CCNC[C@H]3C(=O)O)n2)ccc1C(F)(F)F [Example 354, (2S)-1-(6-{[6-(2-methylphenyl)-5-(trifluoromethyl)pyridin-2-yl]sulfamoyl}pyridin-2-yl)piperazine-2-carboxylic Acid]	154	2740			
Cc1ccccc1-c1nc(NS(=O)(=O)c2cccc(N[C@H]3C[C@H](C(=O)O)C3)n2)ccc1C(F)(F)F [Example 355, (1r,3r)-3-((6-(N-(6-(o-tolyl)-5-(trifluoromethyl)pyridin-2-yl)sulfamoyl)pyridin-2-yl)amino)cyclobutanecarboxylic Acid]	140	3690			
CC1(C(=O)O)CCN(c2cccc(S(=O)(=O)Nc3ccc(C(F)(F)F)c(-c4ccccc4C4CCC4)n3)n2)CC1 [Example 363, 1-(6-(N-(6-(2-cyclobutylphenyl)-5-(trifluoromethyl)pyridin-2-yl)sulfamoyl)pyridin-2-yl)-4-methylpiperidine-4-carboxylic Acid]	616	705			
Cc1ccccc1-c1nc(NS(=O)(=O)c2cccc(N[C@H]3CC[C@H](C(=O)O)CC3)n2)ccc1C(F)(F)F [Example 364, (1r,4r)-4-((6-(N-(6-(o-tolyl)-5-(trifluoromethyl)pyridin-2-yl)sulfamoyl)pyridin-2-yl)amino)cyclohexanecarboxylic Acid]	231	1590			
Cc1ccccc1-c1nc(NS(=O)(=O)c2cccc(N[C@H]3C[C@](C)(C(=O)O)C3)n2)ccc1C(F)(F)F [Example 365, (1r,3s)-1-methyl-3-[(6-{[6-(2-methylphenyl)-5-(trifluoromethyl)pyridin-2-yl]sulfamoyl}pyridin-2-yl)amino]cyclobutane-1-carboxylic Acid]	166	1890			
CCc1ccccc1-c1nc(NS(=O)(=O)c2cccc(N3CCC[C@@H](C(=O)O)C3)n2)ccc1C(F)(F)F [Example 369, (R)-1-(6-(N-(6-(2-ethylphenyl)-5-(trifluoromethyl)pyridin-2-yl)sulfamoyl)pyridin-2-yl)piperidine-3-carboxylic Acid]	962	1720			
Cc1ccccc1-c1nc(NS(=O)(=O)c2cccc(NC3CCC(C(=O)O)CC3)n2)ccc1C(F)(F)F (stereo not shown) [Example 372, 4-((6-(N-(6-(o-tolyl)-5-(trifluoromethyl)pyridin-2-yl)sulfamoyl)pyridin-2-yl)amino)cyclohexanecarboxylic Acid]	554	2250			
CC1(C(=O)O)CCN(c2cccc(S(=O)(=O)Nc3ccc(C(F)(F)F)c(-c4ccccc4C4CCCC4)n3)n2)CC1 [Example 379, 1-(6-(N-(6-(2-cyclopentylphenyl)-5-(trifluoromethyl)pyridin-2-yl)sulfamoyl)pyridin-2-yl)-4-methylpiperidine-4-carboxylic Acid]			1080		646
CC(C)COc1ccccc1-c1nc(NS(=O)(=O)c2cccc(N3CCC(C)(C(=O)O)CC3)n2)ccc1C(F)(F)F [Example 382, 1-(6-(N-(6-(2-isobutoxyphenyl)-5-(trifluoromethyl)pyridin-2-yl)sulfamoyl)pyridin-2-yl)-4-methylpiperidine-4-carboxylic Acid]			711	504	
CC(C)COc1ccccc1-c1nc(NS(=O)(=O)c2cccc(N3CCCC(C)(C(=O)O)C3)n2)ccc1C(F)(F)F (stereo not shown) [Example 386, 1-(6-(N-(6-(2-isobutoxyphenyl)-5-(trifluoromethyl)pyridin-2-yl)sulfamoyl)pyridin-2-yl)-3-methylpiperidine-3-carboxylic Acid]			605		

Further lines, with some results ahead:

Emax [1] [%]	EC50 [1] [nM]	EC50 [2] [nM]	Emax [3] [%]	SMILES	Emax (CFBE41o-) [%]
629	913			CC(C)c1ccccc1-c1nc(NS(=O)(=O)c2cccc(N3CCC[C@H](C(=O)O)C3)n2)ccc1C(F)(F)F [Example 376, (S)-1-(6-(N-(6-(2-isopropylphenyl)-5-(trifluoromethyl)pyridin-2-yl)sulfamoyl)pyridin-2-yl)piperidine-3-carboxylic Acid]	
	738			CC(C)c1ccccc1-c1nc(NS(=O)(=O)c2cccc(N3CCCC(C)(C(=O)O)C3)n2)ccc1C(F)(F)F (stereo not shown) [Example 377, 1-(6-(N-(6-(2-isopropylphenyl)-5-(trifluoromethyl)pyridin-2-yl)sulfamoyl)pyridin-2-yl)-3-methylpiperidine-3-carboxylic Acid]	
		1360	272	CC1(C(=O)O)CCN(c2cc(S(=O)(=O)Nc3ccc(C(F)(F)F)c(-c4ccccc4C4CCC4)n3)ccn2)CC1 [Example 378, 1-(4-(N-(6-(2-cyclobutylphenyl)-5-(trifluoromethyl)pyridin-2-yl)sulfamoyl)pyridin-2-yl)-4-methylpiperidine-4-carboxylic Acid]	
		2660	42.3	CCc1ccccc1-c1nc(S(=O)(=O)Nc2cccc(N3CCC(C)(C(=O)O)CC3)n2)ccc1C(F)(F)F [Example 380, 1-(6-(6-(2-ethylphenyl)-5-(trifluoromethyl)pyridine-2-sulfonamido)pyridin-2-yl)-4-methylpiperidine-4-carboxylic Acid]	
		2510	284	CC1(C(=O)O)CCN(c2cccc(S(=O)(=O)Nc3ccc(C(F)(F)F)c(-c4ccccc4OCC(F)(F)F)n3)n2)CC1 [Example 381, 4-methyl-1-(6-(N-(6-(2-(2,2,2-trifluoroethoxy)phenyl)-5-(trifluoromethyl)pyridin-2-yl)sulfamoyl)pyridin-2-yl)piperidine-4-carboxylic Acid]	
		498		C[C@@]1(C(=O)O)CCCN(c2cccc(S(=O)(=O)Nc3ccc(C(F)(F)F)c(-c4ccccc4C4CCC4)n3)n2)C1 [Example 383, (R)-1-(6-(N-(6-(2-cyclobutylphenyl)-5-(trifluoromethyl)pyridin-2-yl)sulfamoyl)pyridin-2-yl)-3-methylpiperidine-3-carboxylic Acid]	
		501		CC(C)c1ccccc1-c1nc(NS(=O)(=O)c2cccc(N3CCC[C@@](C)(C(=O)O)C3)n2)ccc1C(F)(F)F [Example 384, (R)-1-(6-(N-(6-(2-isopropylphenyl)-5-(trifluoromethyl)pyridin-2-yl)sulfamoyl)pyridin-2-yl)-3-methylpiperidine-3-carboxylic Acid]	
		810	668	CC(C)c1ccccc1-c1nc(NS(=O)(=O)c2cccc(N3CCC[C@](C)(C(=O)O)C3)n2)ccc1C(F)(F)F [Example 385, (S)-1-(6-(N-(6-(2-isopropylphenyl)-5-(trifluoromethyl)pyridin-2-yl)sulfamoyl)pyridin-2-yl)-3-methylpiperidine-3-carboxylic Acid]	
		1630	588	CCc1ccccc1-c1nc(NS(=O)(=O)c2cccc(N3CCCC(C)(C(=O)O)C3)n2)ccc1Cl (stereo not shown) [Example 387, 1-(6-(N-(5-chloro-6-(2-ethylphenyl)pyridin-2-yl)sulfamoyl)pyridin-2-yl)-3-methylpiperidine-3-carboxylic Acid]	
		1020	928	CC(C)c1ccccc1-c1nc(NS(=O)(=O)c2cccc(N3CCCC(C)(C(=O)O)C3)n2)ccc1Cl (stereo not shown) [Example 388, 1-(6-(N-(5-chloro-6-(2-isopropylphenyl)pyridin-2-yl)sulfamoyl)pyridin-2-yl)-3-methylpiperidine-3-carboxylic Acid]	
		1040	749	CC1(C(=O)O)CCCN(c2cccc(S(=O)(=O)Nc3ccc(Cl)c(-c4ccccc4C4CCC4)n3)n2)C1 (stereo not shown) [Example 389, 1-(6-(N-(5-chloro-6-(2-cyclobutylphenyl)pyridin-2-yl)sulfamoyl)pyridin-2-yl)-3-methylpiperidine-3-carboxylic Acid]	
		761	889	CC1(C(=O)O)CCCN(c2cccc(S(=O)(=O)Nc3ccc(Cl)c(-c4ccccc4C(C)(C)C)n3)n2)C1 (stereo not shown) [Example 390, 1-(6-(N-(6-(2-(tert-butyl)phenyl)-5-chloropyridin-2-yl)sulfamoyl)pyridin-2-yl)-3-methylpiperidine-3-carboxylic Acid]	
		530	503	C[C@@]1(C(=O)O)CCCN(c2cccc(S(=O)(=O)Nc3ccc(Cl)c(-c4ccccc4C4CCC4)n3)n2)C1 [Example 391, (R)-1-(6-(N-(5-chloro-6-(2-cyclobutylphenyl)pyridin-2-yl)sulfamoyl)pyridin-2-yl)-3-methylpiperidine-3-carboxylic Acid]	
		527	460	CC(C)c1ccccc1-c1nc(NS(=O)(=O)c2cccc(N3CCC[C@@](C)(C(=O)O)C3)n2)ccc1Cl [Example 392, (R)-1-(6-(N-(5-chloro-6-(2-isopropylphenyl)pyridin-2-yl)sulfamoyl)pyridin-2-yl)-3-methylpiperidine-3-carboxylic Acid]	
		1040	680	CCc1ccccc1-c1nc(NS(=O)(=O)c2cccc(N3CCC[C@@](C)(C(=O)O)C3)n2)ccc1Cl [Example 393, (R)-1-(6-(N-(5-chloro-6-(2-ethylphenyl)pyridin-2-yl)sulfamoyl)pyridin-2-yl)-3-methylpiperidine-3-carboxylic Acid]	
		1050		CCc1ccccc1-c1nc(NS(=O)(=O)c2cccc(N3CCC[C@@](C)(C(=O)O)C3)n2)ccc1C(F)(F)F [Example 394, (R)-1-(6-(N-(6-(2-ethylphenyl)-5-(trifluoromethyl)pyridin-2-yl)sulfamoyl)pyridin-2-yl)-3-methylpiperidine-3-carboxylic Acid]	
